Data set [1] has as its target Voltage-gated inwardly rectifying potassium channel KCNH2 (Homo sapiens, UniProt Q12809).
Description: Displacement of [3H]dofetilide from human ERG
The target of data set [2] is T1, 5-hydroxytryptamine receptor 1A (Homo sapiens, UniProt P08908).
T1 sequence (P08908 whole entry): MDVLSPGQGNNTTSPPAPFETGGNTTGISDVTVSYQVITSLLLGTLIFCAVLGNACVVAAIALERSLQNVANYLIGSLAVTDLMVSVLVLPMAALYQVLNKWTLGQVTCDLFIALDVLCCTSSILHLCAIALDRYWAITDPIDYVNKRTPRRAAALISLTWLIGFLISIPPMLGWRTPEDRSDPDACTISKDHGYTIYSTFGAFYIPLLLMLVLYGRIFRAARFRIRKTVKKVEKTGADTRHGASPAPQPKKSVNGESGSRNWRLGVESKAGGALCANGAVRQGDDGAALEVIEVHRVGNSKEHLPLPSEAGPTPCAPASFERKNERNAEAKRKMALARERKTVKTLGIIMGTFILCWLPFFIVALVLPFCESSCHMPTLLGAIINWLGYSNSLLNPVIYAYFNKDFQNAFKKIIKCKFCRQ
Briefly: biochemical.
Description: Displacement of [3H]-8-OH-DPAT from human 5HT1A receptor expressed in HeLa cells

Data set [3] concerns the target 5-hydroxytryptamine receptor 2A (Homo sapiens, UniProt P28223). Briefly: Binding affinity to human 5HT2A receptor.
The test system of data set [4] is Mus musculus. The data set is described as follows: In vivo intrinsic activity at D2 receptor in mouse brain assessed as inhibition of gamma-butyrolactone-induced increase in DOPA synthesis at 30 mg/kg, po administered 60 mins before gamma-butyrolactone challenge measured after 30 mins. The data set is classed as functional.
The target in data set [5] is T2, 5-hydroxytryptamine receptor 1A (Homo sapiens) (UniProt P08908).
T2 sequence (whole entry): T1 sequence (P08908 whole entry)
The data set is described as follows: Intrinsic activity at human […] 5HT1A receptor expressed in HeLa cells by FLIPR assay. The data set is classed as cell-based.

Data set [6] is described as follows: Apparent intrinsic clearance in human liver microsomes. The data set is classed as ADME, Microsome. (Liver microsomes are vesicles of endoplasmic reticulum, rich in cytochrome P450 enzymes.)
Data set [7] relates to Mus musculus. The data set is described as follows: Antipsychotic activity in po dosed mouse assessed as inhibition of spontaneous locomotor activity. The data set is classed as functional. Conditions: for minimal effective dose: read-out: MED; call rule not given here.
Data set [8] has as its system Mus musculus. Briefly: Induction of catalepsy in mouse at 30 mg/kg, po. The arrangement: dose 30 mg/kg, route oral. The data set is classed as organism-based. The following applies: in vivo.
The target in data set [9] is T1, 5-hydroxytryptamine receptor 1A. The data set is described as follows: Binding affinity to human 5HT1A receptor expressed in HeLa cells by scintillation proximity assay. The data set is classed as cell-based. A general note: In a scintillation proximity assay essentially only radioactivity close to the scintillant gives light.
Data set [10] deals with T2, 5-hydroxytryptamine receptor 1A (Homo sapiens). Briefly: Intrinsic activity at human […] 5HT1A receptor expressed in HeLa cells by [3H]-thymidine uptake assay. The data set is classed as cell-based.
Data set [11] concerns Rattus norvegicus. The data set is described as follows: Ex vivo D2 receptor occupancy in po dosed rat striatum assessed as inhibition [3H]-raclopride binding at 47 ng/ml plasma concentration. The data set is classed as functional. Set-up: scale not given: the % may be the effect or the level left.
Data set [12] concerns Rattus norvegicus. Briefly: Ex vivo D2 receptor occupancy in rat striatum assessed as inhibition [3H]-raclopride binding at 1 mg/kg, po. The data set is classed as functional. Set-up: scale not given: the % may be the effect or the level left.
The target of data set [13] is T3, Sodium-dependent serotonin transporter (Homo sapiens, UniProt P31645). The data set is described as follows: Displacement of [3H]-citalopram from human serotonin transporter expressed in HEK 293 cells. The data set is classed as cell-based, HEK293. Background: In a radioligand displacement assay an active substance lowers the binding of a labelled ligand.
T3 sequence (P31645 whole entry): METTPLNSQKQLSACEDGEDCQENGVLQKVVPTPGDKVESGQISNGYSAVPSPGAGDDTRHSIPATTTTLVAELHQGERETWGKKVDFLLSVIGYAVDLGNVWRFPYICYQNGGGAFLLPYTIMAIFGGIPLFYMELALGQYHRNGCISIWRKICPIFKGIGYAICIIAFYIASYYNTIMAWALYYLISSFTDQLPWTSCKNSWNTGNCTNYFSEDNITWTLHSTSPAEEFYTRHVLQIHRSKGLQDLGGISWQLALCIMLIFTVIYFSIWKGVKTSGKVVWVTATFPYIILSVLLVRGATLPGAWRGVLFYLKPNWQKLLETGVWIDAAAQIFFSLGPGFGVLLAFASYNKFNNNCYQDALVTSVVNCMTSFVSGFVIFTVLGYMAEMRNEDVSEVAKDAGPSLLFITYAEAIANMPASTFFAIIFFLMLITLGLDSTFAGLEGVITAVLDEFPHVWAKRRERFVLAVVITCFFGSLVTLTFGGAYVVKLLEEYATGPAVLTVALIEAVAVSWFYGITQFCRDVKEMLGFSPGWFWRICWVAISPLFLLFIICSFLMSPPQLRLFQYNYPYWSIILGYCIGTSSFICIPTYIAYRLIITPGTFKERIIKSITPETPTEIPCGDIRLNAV
Data set [14] relates to Rattus norvegicus. Briefly: Ex vivo D2 receptor occupancy in po dosed rat striatum assessed as inhibition [3H]-raclopride binding at 188 ng/ml plasma concentration. The data set is classed as functional. Set-up: scale not given: the % may be the effect or the level left.
The target in data set [15] is T3, Sodium-dependent serotonin transporter. Briefly: Displacement of [3H]-citalopram from human serotonin transporter expressed in HEK 293 cells by scintillation proximity assay. The data set is classed as cell-based, HEK293.
Data set [16] in a line: Ratio of drug level in brain to plasma in po dosed rat. The data set is classed as ADME, organism-based. The following applies: read-out: BPR.
The subject of data set [17] is Rattus norvegicus. Briefly: Ex vivo D2 receptor occupancy in po dosed rat striatum assessed as inhibition [3H]-raclopride binding at 243 ng/ml plasma concentration. The data set is classed as functional. Set-up: scale not given: the % may be the effect or the level left.
Data set [18] has as its system Rattus norvegicus. The data set is described as follows: Ex vivo D2 receptor occupancy in po dosed rat striatum assessed as inhibition [3H]-raclopride binding at 82 ng/ml plasma concentration. Set-up: scale not given: the % may be the effect or the level left. The data set is classed as functional.
Data set [19] deals with Rattus norvegicus. The data set is described as follows: Ex vivo D2 receptor occupancy in rat striatum assessed as inhibition [3H]-raclopride binding at 30 mg/kg, po. The data set is classed as functional. Set-up: scale not given: the % may be the effect or the level left.
The test system of data set [20] is Mus musculus. Briefly: Induction of catalepsy in mouse at 10 mg/kg, po. The data set is classed as organism-based. The arrangement: dose 10 mg/kg, route oral. The following applies: in vivo.

In general, Ki refers to the equilibrium dissociation constant of an inhibitor or competing ligand from its target. As usually defined, the CLint scaled is the rate of metabolic loss divided by the concentration.

Chain of 5-hydroxytryptamine receptor 2A (P28223 whole entry): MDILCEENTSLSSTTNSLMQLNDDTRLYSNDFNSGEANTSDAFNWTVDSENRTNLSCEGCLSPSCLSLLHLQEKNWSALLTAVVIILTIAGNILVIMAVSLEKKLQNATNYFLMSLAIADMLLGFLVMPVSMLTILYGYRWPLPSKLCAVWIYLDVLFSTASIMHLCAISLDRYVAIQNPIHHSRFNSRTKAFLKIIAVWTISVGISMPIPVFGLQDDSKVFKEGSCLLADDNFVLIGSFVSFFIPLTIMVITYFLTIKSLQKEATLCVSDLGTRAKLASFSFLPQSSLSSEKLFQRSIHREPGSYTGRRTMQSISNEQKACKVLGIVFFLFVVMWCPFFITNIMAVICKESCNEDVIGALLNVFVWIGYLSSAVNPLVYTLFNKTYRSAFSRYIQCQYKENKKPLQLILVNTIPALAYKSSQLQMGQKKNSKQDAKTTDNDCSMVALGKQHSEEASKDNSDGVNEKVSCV
Chain of Voltage-gated inwardly rectifying potassium channel KCNH2 (Q12809 whole entry): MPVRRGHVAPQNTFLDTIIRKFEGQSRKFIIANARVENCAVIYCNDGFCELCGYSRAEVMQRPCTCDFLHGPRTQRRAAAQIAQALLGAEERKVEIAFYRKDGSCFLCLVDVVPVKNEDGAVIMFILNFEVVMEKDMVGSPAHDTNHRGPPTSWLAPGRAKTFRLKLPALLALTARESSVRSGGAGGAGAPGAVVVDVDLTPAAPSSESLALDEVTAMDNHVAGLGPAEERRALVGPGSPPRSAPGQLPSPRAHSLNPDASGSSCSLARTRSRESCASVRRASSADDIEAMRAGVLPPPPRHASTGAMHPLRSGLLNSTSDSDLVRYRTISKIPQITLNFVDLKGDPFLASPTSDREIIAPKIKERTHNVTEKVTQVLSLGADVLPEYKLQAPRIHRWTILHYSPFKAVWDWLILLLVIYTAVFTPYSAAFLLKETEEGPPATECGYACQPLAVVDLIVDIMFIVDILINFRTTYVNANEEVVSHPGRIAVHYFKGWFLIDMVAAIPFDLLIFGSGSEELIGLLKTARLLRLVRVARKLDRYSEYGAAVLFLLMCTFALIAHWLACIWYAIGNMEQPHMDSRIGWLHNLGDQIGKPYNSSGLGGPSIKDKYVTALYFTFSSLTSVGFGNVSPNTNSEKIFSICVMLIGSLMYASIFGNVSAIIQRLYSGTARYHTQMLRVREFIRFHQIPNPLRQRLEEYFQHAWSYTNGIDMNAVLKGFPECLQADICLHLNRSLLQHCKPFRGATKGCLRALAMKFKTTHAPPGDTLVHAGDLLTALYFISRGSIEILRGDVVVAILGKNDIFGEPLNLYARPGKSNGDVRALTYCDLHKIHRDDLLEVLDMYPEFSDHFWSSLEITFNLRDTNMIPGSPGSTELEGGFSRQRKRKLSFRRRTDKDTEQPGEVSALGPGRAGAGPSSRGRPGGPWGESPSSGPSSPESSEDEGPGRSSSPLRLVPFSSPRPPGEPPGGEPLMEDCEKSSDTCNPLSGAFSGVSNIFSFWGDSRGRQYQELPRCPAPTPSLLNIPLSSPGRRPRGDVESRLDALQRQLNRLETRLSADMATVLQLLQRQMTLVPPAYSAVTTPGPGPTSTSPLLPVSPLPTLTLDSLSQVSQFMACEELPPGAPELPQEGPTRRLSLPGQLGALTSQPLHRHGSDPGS

For the compound `c1ccc2c(N3CCN(CCCCOc4ccc5c(c4)CNC5)CC3)cccc2c1`, the Ki in data set [1] turned out to be 1560 nM; in [2] it was 0.204 nM; in data set [3] it was 5.07 nM.

Consider `O=C1CCc2ccc(OCCCCN3CCN(c4cccc(Cl)c4Cl)CC3)cc2N1` [ARIPIPRAZOLE], for which the Intrinsic activity (with Mus musculus [4]; in data set [5]) was 43% each time. Moreover, the CLint scaled in data set [6] stood at 31.7 mL/min/kg. Besides, the minimal effective dose in the data set on Mus musculus [7] was determined as 3 mg/kg. Besides, in the data set on Mus musculus [8], the Activity result is given as “Non-toxic”.

With `O=C1NCc2ccc(OCCCCN3CCN(c4cccc5ccccc45)CC3)cc21`, the Ki in [9] came out at 2.22 nM; in data set [1], 1850 nM; in data set [2], 0.151 nM; in [13] it was 16.5 nM; in data set [3] it was 4.95 nM; in [15], 445 nM. The Intrinsic activity in the data set with Mus musculus [4] is 43%; in [10] it was 66.7%. The Activity is 80% with Rattus norvegicus [11], 55% in the data set on Rattus norvegicus [12], “Dose-dependent effect” in the data set with Mus musculus [7] and 94% in the data set with Rattus norvegicus [14]. The CLint scaled in data set [6] turned out to be 23.7 mL/min/kg. For the same compound, the minimal effective dose in the data set with Mus musculus [7] is 1 mg/kg. Also, in [16], the Kp is 2.49.

For `O=C1NCc2ccc(OCCCN3CCN(c4cccc5ccccc45)CC3)cc21`, the values for the Ki in data set [9], in [1] and in [2] were 0.541 nM, 2810 nM and 0.0152 nM, respectively. Also, the Intrinsic activity is 65.9% in data set [5] and 88.8% in data set [10].

Consider `O=C1NCc2ccc(OCCCCN3CCN(c4cccc5ccc(F)cc45)CC3)cc21`, for which the figures for the inhibition constant (Ki) in data set [2] and in data set [3] were 0.838 nM and 11.4 nM, respectively.

On to `Fc1ccc2cccc(N3CCN(CCCCOc4ccc5c(c4)CNC5)CC3)c2c1`, for which the Ki is 1680 nM in [1], 0.243 nM in data set [2] and 0.483 nM in [3].

As to `c1ccc2c(N3CCN(CCCOc4ccc5c(c4)CNC5)CC3)cccc2c1`, the Ki turned out to be 0.149 nM in data set [2] and 1.76 nM in data set [3]. Besides, the Intrinsic activity in [10] was determined as 77.8%.

As for `O=C1NCc2ccc(OCCCN3CCN(c4cccc5cc(F)c(F)cc45)CC3)cc21`, the Ki in data set [1] came to 907 nM; in data set [2], 0.179 nM; in data set [3], 20.1 nM.

On to `O=C1NCc2ccc(OCCCCN3CCN(c4cccc5c4COCC5)CC3)cc21`, for which the results for the Ki in data set [2] and in data set [3] were 0.279 nM and 5.44 nM, respectively.

In the case of `Fc1ccc2cccc(N3CCN(CCCOc4ccc5c(c4)CNC5)CC3)c2c1`, the values for the Ki in [1], in data set [2] and in [3] were 931 nM, 0.102 nM and 0.72 nM, respectively. In [10], this compound returned an Intrinsic activity of 73.3%.

As to `O=C1NCc2ccc(OCCCCN3CCN(c4cccc5cccc(F)c45)CC3)cc21`, the Ki in data set [9] was 0.951 nM; in data set [1], 2060 nM; in [2] it was 0.0504 nM; in data set [13], 26 nM; in data set [3], 1.83 nM. Besides, in the data set on Mus musculus [4], the Intrinsic activity worked out at 60%. The Activity in the data set on Rattus norvegicus [12] is 53%; in the data set on Rattus norvegicus [17] it was 92.3%; in the data set with Rattus norvegicus [18] it was 78.5%; in the data set with Mus musculus [7], “Dose-dependent effect”; in the data set with Mus musculus [8] it was “Non-toxic”; in the data set with Rattus norvegicus [19] it was 99%. Further, in the data set on Mus musculus [20], the Activity entry is “Non-toxic”. For the same compound, the minimal effective dose in the data set with Mus musculus [7] was 1 mg/kg. Also, in [16], the Kp was found to be 1.81.

For the compound `O=C1NCc2ccc(OCCCN3CCN(c4cccc5c4COCC5)CC3)cc21`, the Ki in [2] was determined as 0.108 nM; in [3], 11.1 nM.

In data set [2], `O=C1NCc2ccc(OCCCCN3CCN(c4cccc5cc(F)c(F)cc45)CC3)cc21` came in with a Ki of 1.3 nM.

Take `O=C1NCc2cc(F)c(OCCCCN3CCN(c4cccc5cccc(F)c45)CC3)cc21`: the Ki in [9] turned out to be 0.118 nM; in data set [13], 10.5 nM; in data set [3], 3.49 nM; in [15] it was 42.6 nM.

On to `O=C1NCc2ccc(OCCCCN3CCN(c4cccc5c4CCOC5)CC3)cc21`, for which the Ki in data set [2] came out at 1.99 nM.

Take `O=C1NCc2ccc(OCCCN3CCN(c4cccc5ccc(F)cc45)CC3)cc21`: the Ki in [2] is 0.0447 nM; in [3], 3.37 nM.

As for `O=C1NCc2ccc(OCCCN3CCN(c4cccc5ccc(F)cc45)CC3)c(F)c21`, the Ki in [9] is under 0.205 nM; in data set [13], 1770 nM; in data set [3], 0.904 nM; in data set [15] it was 447 nM.

For `O=C1NCc2ccc(OCCCN3CCN(c4cccc5cc(F)ccc45)CC3)cc21`, the Ki in data set [1] amounted to 439 nM; in data set [2], 1.54 nM; in data set [3], 3.54 nM.

For `O=C1NCc2cc(F)c(OCCCN3CCN(c4cccc5ccc(F)cc45)CC3)cc21`, the Ki came out at 0.341 nM in [9], 13.6 nM in data set [13], 2.68 nM in [3] and 419 nM in data set [15].

On to `O=C1NCc2ccc(OCCCN3CCN(c4cccc5cccc(F)c45)CC3)cc21`, for which the Ki was 1290 nM in data set [1] and 0.0141 nM in data set [2].

Regarding `O=C1NCc2ccc(OCCCCN3CCN(c4cccc5cc(F)ccc45)CC3)cc21`, the Ki in data set [1] came to 969 nM; in [2], 13.4 nM; in data set [3] it was 9.53 nM.

The values above are taken from ChEMBL document CHEMBL1255556, “6-Alkoxyisoindolin-1-one based dopamine D2 partial agonists as potential antipsychotics” (Bioorg Med Chem Lett, 2010).
